According to patent US5244918A, “Benzofuran derivative and pharmaceutical comprising the same as active ingredient” (Meiji Milk Products Co., Ltd., priority 1989, dated 1993):
Read-outs that look alike come from different tables or passages of the source. Each block holds one molecule with its values, some of them ahead of it.

Key:
5-lipoxygenase = biological target: T1, 5-lipoxygenase (Rattus norvegicus, UniProt P12527); experiment: 5-Lipoxygenase inhibitive activity (production of 5-HETE by RBL-1 cell supernatant); assay type: biochemical; settings: for IC50: inhibition of 5-HETE production, 37° C., 10 minutes, 100 μM arachidonic acid
T1 construct: ultracentrifugation at 100,000×g for 90 minutes to collect a supernatant, which was served as a 5-lipoxygenase enzyme liquid; host or cells: RBL-1 (rat basophilic leukemia cells), 100,000×g supernatant of sonicated cells
T1 sequence (P12527 1-673): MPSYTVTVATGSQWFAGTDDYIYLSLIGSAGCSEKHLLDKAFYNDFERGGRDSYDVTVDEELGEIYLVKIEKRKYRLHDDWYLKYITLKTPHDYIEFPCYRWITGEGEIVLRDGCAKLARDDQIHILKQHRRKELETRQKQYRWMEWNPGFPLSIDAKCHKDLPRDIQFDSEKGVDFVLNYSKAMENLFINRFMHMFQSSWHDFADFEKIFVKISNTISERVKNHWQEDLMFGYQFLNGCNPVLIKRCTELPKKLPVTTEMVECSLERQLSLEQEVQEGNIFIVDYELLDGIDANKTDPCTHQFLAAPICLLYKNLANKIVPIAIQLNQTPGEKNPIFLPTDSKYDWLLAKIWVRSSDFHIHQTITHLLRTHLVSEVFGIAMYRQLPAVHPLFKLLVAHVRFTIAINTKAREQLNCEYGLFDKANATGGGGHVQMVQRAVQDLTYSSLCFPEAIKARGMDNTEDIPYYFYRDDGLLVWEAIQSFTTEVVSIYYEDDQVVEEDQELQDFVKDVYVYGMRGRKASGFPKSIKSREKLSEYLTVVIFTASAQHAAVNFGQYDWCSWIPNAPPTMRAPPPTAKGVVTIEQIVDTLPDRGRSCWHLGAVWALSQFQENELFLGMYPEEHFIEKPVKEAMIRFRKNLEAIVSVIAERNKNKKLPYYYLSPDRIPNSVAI
Method: 2.5×10^7 RBL-1 cells (rat basophilic leukemia cells, purchased from Dainippon Pharmaceutical Co. Ltd.) were washed twice with 0.1M Tris-HCl buffer (pH 7.5) and ultrasonicated. The pulverized cell liquid was subjected to ultracentrifugation at 100,000×g for 90 minutes to collect a supernatant, which was served as a 5-lipoxygenase enzyme liquid in the test. […] After terminating the reaction by an addition of 50 μl of 1N HCl, the reaction mixture was extracted with 6 ml of ethyl acetate.

SRS-A production [1] = settings: Prostaglandins 26, 955-973 (1983); read-out: 50% inhibition concentration (known agent, literature); cited from earlier work
edema in paws of rats = experiment: Edema inhibitive activity in rat soles (arachidonate-induced paw edema); assay type: in vivo, rat (Wister male); settings: 200 mg/kg oral
Method: In vivo anti-inflammatory action of Compound 1 was tested using edema in paws of rats as a model.
Wister male rats (Japan Charles River), weighing 150-170 g, 6 week age, were fasted from the previous day of the test for serving to the experiment.
Samples (10 ml/kg) were orally administered to the control (solvent: 0.5% gum arabica) group and Compound 1 (200 mg/kg body weight) test group. After 2 hours, 100 μl of a sodium arachidonate solution (5 mg/ml, 0.1M carbonate buffer, pH 8.4) was injected in the paw to determine the increase of the edema volume after 1 hour. The increase of the edema volume was determined by subtracting the value measured 1 hour before the administration of arachidonate from the value measured 1 hour after the administration. The foot volume increase (ml, means±S.D.) in the control group was 0.822±0.131 (n=10), whereas that in Compound 1 test group was 0.664±0.104 (n=8).

SRS-A production [2] = experiment: SRS-A production inhibitive activity (sensitized guinea pig lung fragments, ileum bioassay); assay type: cell-based, guinea pig (Hartley male)
Method: LTC4 and LTD4 which consist of SRS-A are very strong chemical mediators of allergic bronchial asthma and the like. The inhibitory effect of Compound 1 against the production of SRS-A was therefore biologically measured.
A suspension of 1 mg of egg white albumin and 0.5 ml of complete Freund's adjuvant was intraperitoneally injected to Hartley male guinea pigs. The same antigen liquid was again injected 2 or 3 weeks thereafter to effect the sensitization. The sensitized guinea pigs were sacrificed by bleeding, and the lung was washed with a Tyrode's solution and cut into pieces to prepare lung fragment specimens. 300 mg of the lung fragments were floated on 2.8 ml of the Tyrode's solution. After shaking the solution at 37° C. for 20 minutes, 0.1 ml of Compound 1 was added. Shaking this solution was carried out for a further 5 minutes, followed by the addition of 0.1 ml of an egg white albumin solution (the ultimate antigen concentration: 1 mg/ml). After the reaction at 37° C. for 20 minutes, 12 ml of methanol was added and the mixture was stirred. The reaction mixture was centrifuged, the supernatant was concentrated under reduced pressure to dryness, and the dry solid was dissolved into 1 ml of water to biologically measure LTs (SRS-A) contained therein.
The determination of the quantity of SRS-A produced was carried out by using the ileum enucleated from Hartley male guinea pigs and counting the constriction of the ileum in the presence of 10^-6 M Atropine and Pyrilamine. A standard curve for the standard sample was prepared based on LTD4 to determine the amount of SRS-A produced by the effect of Compound 1 as the amount of LTD4.

mice = experiment: Single administration toxicity test in mice; settings: mouse, in vivo
Method: Compound 1 was intravenously or intraperitoneally administered one time to groups of ICR male mice (age: 5 weeks, purchased from Japan SLC Co.), each group consisting of 5, to observe the death of the mice in 14 days. […] Thus, the fatal dose of Compound 1 in single intravenous administration to mice was above 20 mg/kg. […] The fatal dose of Compound 1 in single intraperitoneal administration to mice was about 100 mg/kg or more.

[3] = test system: auricle edema induced with arachidonic acid; experiment: Auricle edema inhibitive activity in mice (induced with arachidonic acid); assay type: in vivo, mouse (ICR male); settings: topical
Method: In vivo anti-inflammatory action of Compound 1 was tested using auricle edema in mice as a model.
ICR male mice (Japan Charles River), weighing 29.9-40.4 g, 8 week age, were anesthetized with pentobarbital (Trademark: Nembutal, manufactured by Dainabott-Dainippon Pharmaceutical Co., Ltd.) to measure the thickness of the right ear with a dial thickness gauge. 20 μl of Compound 1 and control compound (acetone) were applied (the amount hereinafter specified) to the inside of the right ear with microsyringe, and, 30 minutes later, 2 mg of arachidonic acid was applied in the same manner to the inside of the right ear. The thickness of the right ear was measured 60 minutes after the application of arachidonic acid. Mice were then sacrificed by vertebral cervical dislocation and a circle with a diameter of 7 mm was cut out from the center of the right ear with an ear punch to measure its weight. The test was performed twice; the amounts of Compound 1 applied were 4 mg, 1 mg, 0.4 mg, 0.04 mg, and 0.004 mg per ear for the first test and 1 mg, 0.2 mg, 0.04 mg, 0.008 mg, and 0.0016 mg per ear for the second test. Both Compound 1 and arachidonic acid were used as dissolved in acetone.
The results are shown in FIG. 8-1 (the first test) and FIG. 8-2 (the second test). […] The 50% effective dose (ED50) in the two experiments were very close to each other, 0.03-0.08 mg/ear.

Molecule: 2-(1,3-pentadienyl)-2,3-dihydro-5-hydroxy(or methoxy)-7-methoxy(or hydroxy)benzofuran [Compound 3]
IC50 (5-lipoxygenase): 1500 nM

Molecule: CC1=C(C)C(=O)C(CCCCC#CCCCC#CCO)=C(C)C1=O [AA-861]
IC50 (SRS-A production [1]): 1800 nM

Molecule: C/C=C/C=C/C1Cc2cc(O)cc(O)c2O1 (stereo not drawn) [Compound 1, 2-(1-tans, 3-trans-pentadienyl)-2,3-dihydro-5,7-dihydroxybenzofuran]
foot volume increase (means±S.D.) (edema in paws of rats; 2 h before arachidonate, 1 h after, n=8, control 0.822±0.131 (n=10)): 0.664 ± 0.104 mL
edema inhibitory effect (edema in paws of rats; versus control group): 19.2%
SRS-A inhibitory effect compared with AA-861 (in words) (SRS-A production [2]; AA-861: 1.8×10^-6 M (literature)): equivalent to a known 5-lipoxygenase inhibitory agent, AA-861
IC50 (SRS-A production [2]; Cavia porcellus, 20 min, sensitized guinea pig lung fragments, egg white albumin 1 mg/ml, 37° C., 20 min, read-out: 50% inhibition concentration, SRS-A production): 4000 nM
SRS-A production inhibitory effect (in words) (SRS-A production [2]; guinea pig lung): dependent on the concentration
death of mice, intraperitoneal (mice): no death in the mice occurred
fatal dose, single intraperitoneal administration (mice; ip): ≥ 100 mg/kg
fatal dose, single intravenous administration (mice; iv): above 20 mg/kg
death of mice, intravenous (mice; iv, 20 mg/kg): no mice were dead
general conditions, body weight and autopsy, intravenous (mice; iv, 20 mg/kg): No abnormality was observed
5-lipoxygenase inhibitory activity (in words) (5-lipoxygenase): specific 5-lipoxygenase inhibitory activity
IC50 (5-lipoxygenase): 2000 nM
50% effective dose (ED50) ([3]; inside of right ear, 30 min before 2 mg arachidonic acid, two experiments): 0.03-0.08 mg/ear
inhibitory effect against auricle edema (in words) ([3]; ear thickness and weight, FIG. 8-1, 8-2): dose dependent inhibitory effect

IC50 (5-lipoxygenase): 1200 nM
Molecule: CCCCCC1Cc2cc(O)cc(O)c2O1 (centres unmarked) [Compound 2, 2-n-pentyl-2,3-dihydro-5,7dihydroxybenzofuran]
